Experimental findings from paper PMC4286351 (Journal of undergraduate chemistry research, 2013) are described below.

A value given as a limit tells only on which side of the number the result lay.

Data set [1] concerns the target T1, human P450 1A1 (Homo sapiens, UniProt P04798).
T1 sequence (P04798 1-512): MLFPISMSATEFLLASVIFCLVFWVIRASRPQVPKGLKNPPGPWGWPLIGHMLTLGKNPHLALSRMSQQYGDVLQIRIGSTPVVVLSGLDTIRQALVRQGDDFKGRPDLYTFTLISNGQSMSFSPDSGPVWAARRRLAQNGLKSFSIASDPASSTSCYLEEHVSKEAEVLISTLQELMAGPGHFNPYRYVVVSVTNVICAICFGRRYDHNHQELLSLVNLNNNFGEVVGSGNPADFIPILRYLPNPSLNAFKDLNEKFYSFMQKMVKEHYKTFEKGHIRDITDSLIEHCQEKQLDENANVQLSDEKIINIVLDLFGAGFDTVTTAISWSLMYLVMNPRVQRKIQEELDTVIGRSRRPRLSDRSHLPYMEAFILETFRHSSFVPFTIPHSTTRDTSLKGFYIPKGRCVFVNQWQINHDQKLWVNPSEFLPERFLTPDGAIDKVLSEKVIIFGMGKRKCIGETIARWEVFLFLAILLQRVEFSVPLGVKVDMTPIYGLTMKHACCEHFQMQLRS
The data set can be described thus: biochemical.

For data set [2], the target named is T2, rat P450 2B1 (Rattus norvegicus, UniProt P00176).
T2 sequence (P00176 1-491): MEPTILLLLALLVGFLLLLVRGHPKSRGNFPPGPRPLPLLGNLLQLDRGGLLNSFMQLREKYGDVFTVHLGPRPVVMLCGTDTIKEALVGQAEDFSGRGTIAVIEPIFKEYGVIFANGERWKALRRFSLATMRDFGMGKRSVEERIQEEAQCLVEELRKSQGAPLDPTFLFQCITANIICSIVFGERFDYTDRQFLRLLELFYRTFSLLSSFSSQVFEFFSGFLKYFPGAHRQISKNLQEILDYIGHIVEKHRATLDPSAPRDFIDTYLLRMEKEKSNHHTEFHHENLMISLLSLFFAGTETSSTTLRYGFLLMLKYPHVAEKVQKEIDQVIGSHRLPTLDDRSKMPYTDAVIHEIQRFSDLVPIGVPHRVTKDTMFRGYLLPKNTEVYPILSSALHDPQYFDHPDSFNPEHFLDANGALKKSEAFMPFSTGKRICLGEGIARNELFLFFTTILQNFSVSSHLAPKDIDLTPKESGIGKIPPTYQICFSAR
As to the kind of experiment: biochemical. Type of data set: biochemical. As to conditions: for inhibition potency for P450 2B1 (in words): rat P450 2B1, PROD activity.

For data set [3], the target named is T3, human P450 1A2 (Homo sapiens, UniProt P05177).
T3 sequence (P05177 1-516): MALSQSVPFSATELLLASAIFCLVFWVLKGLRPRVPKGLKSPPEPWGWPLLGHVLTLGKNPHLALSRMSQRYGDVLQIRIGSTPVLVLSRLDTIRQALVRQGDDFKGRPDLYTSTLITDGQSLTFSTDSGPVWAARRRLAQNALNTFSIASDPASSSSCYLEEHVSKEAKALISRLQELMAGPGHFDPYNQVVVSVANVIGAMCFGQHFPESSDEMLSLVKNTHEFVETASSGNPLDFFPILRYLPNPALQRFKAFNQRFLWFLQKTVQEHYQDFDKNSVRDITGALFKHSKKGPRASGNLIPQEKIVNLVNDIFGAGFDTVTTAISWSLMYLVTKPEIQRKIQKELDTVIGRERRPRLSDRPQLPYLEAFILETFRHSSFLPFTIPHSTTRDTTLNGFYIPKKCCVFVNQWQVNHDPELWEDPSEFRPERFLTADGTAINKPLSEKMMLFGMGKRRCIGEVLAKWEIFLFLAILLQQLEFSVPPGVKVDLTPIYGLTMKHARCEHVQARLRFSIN
As to the kind of experiment: 7-methoxyresorufin O-demethylation. It counts as biochemical.

The IC50 is the concentration at which inhibition is half-maximal. With `CCCOc1cccc2[nH]c3ccccc3c12` [III, 4-propoxy-9H-carbazole], the IC50 in data set [1] came to 8.73 µM; in data set [2], 0.659 µM. Moreover, the “inhibition potency for P450 2B1 (in words)” value (“inhibition potency” below) in data set [2] is on record as “good inhibition potency”.
For `COc1cccc2[nH]c3ccccc3c12` [I, 4-methoxy-9H-carbazole], the half-inhibitory concentration (IC50) in data set [1] was determined as 21.5 µM. Moreover, in data set [2], the IC50 is 1.83 µM and the “inhibition potency” value is given as “good inhibition potency”.
As for `CCCOc1ccc2c(c1)[nH]c1ccccc12` [VII, 2-propoxy-9H-carbazole], the IC50 in data set [1] is 26.4 µM; in data set [2] it was 10.6 µM.
Take `Oc1cccc2[nH]c3ccccc3c12` [4-hydroxycarbazole, 4-Hydroxycarbazole, reference compound]: the concentration for half-maximal inhibition (IC50) is 36.8 µM in data set [1], 7.33 µM in data set [3] and over 100 µM in data set [2].
Taken in the same sequence, the figures for `Oc1ccc2c(c1)[nH]c1ccccc12` [2-hydroxycarbazole, 2-Hydroxycarbazole, reference compound] were 70.5 µM, 59.7 µM and 41.6 µM.
Regarding `CCOc1ccc2c(c1)[nH]c1ccccc12` [VI, 2-ethoxy-9H-carbazole], the IC50 stood at 15.6 µM in data set [1] and 8.43 µM in data set [2].
Turning to `C#CCOc1cccc2[nH]c3ccccc3c12` [IV, 4-(prop-2-yn-1-yloxy)-9H-carbazole], the IC50 came to 6.64 µM in data set [1] and 1.78 µM in data set [2]. Also, the “inhibition potency” value in data set [2] is reported as “good inhibition potency”.
Consider `COc1ccc2c(c1)[nH]c1ccccc12` [V, 2-methoxy-9H-carbazole], for which the half-maximal inhibitory concentration (IC50) came out at 35 µM in data set [1] and 13.3 µM in data set [2].
Molecule `CCOc1cccc2[nH]c3ccccc3c12` [II, 4-ethoxy-9H-carbazole] gave a 50% inhibitory concentration (IC50) in data set [1] of 10.3 µM. In addition, in data set [2], the half-maximal inhibitory concentration (IC50) was determined as 1.14 µM and the “inhibition potency” value was “good inhibition potency”.
Take `C#CCOc1ccc2c(c1)[nH]c1ccccc12` [VIII, 2-(prop-2-yn-1-yloxy)-9H-carbazole]: the IC50 in data set [1] stood at 8.65 µM; in data set [2] it was 5.26 µM.
